Reference: US7696339B2, “Nucleic acid encoding monkey QRFP” (Banyu Pharmaceutical Co., Ltd., priority 2004, dated 2010)
Square brackets hold non-standard residues; d marks the D form. pGlu = O=C1CC[C@@H](C(=O)O)N1

Tests used:
Type in all cases: cell-based
[1] = system: CHO cells transfected with the mock vector; assay: Intracellular calcium ion concentration change in CHO cells transfected with the mock vector
Method: (§1) CHO cells were transfected with pEF1/V5-HisB plasmid vector carrying the monkey GPR103 gene or human GPR103 gene obtained in Example 1 and the same vector without the insert (mock), and Geneticin (Invitrogen Corp.) was added to the medium to a final concentration of 2 mg/ml for selection of expressing cells. Next, the monkey or human GPR103 gene-expressing cells were singly cloned by the limiting dilution method and supplied for the following test. The monkey QRFP43 and QRFP26 synthesized by the method described in Example 6 were also supplied for the test.
(§2) After 24 hours of culturing, the cells were seeded in a 96-well poly-D-lysine coated black culture plate (Becton Dickinson) at 2.5×10^4 cells/well and cultured for two nights. […] Different concentrations of monkey QRFP43 or QRFP26 dissolved in the assay buffer were also set in the FLIPR, and then a sample was added to the cells and the change in intracellular calcium ion concentration-dependent fluorescence produced by irradiation with exciting light was measured.
(§3) Defining the change in fluorescence as the difference between the fluorescence immediately before addition of monkey QRFP43 or QRFP26 and the maximum value after addition, a Prism Version 4.00 (GraphPad) was used to graph the change in fluorescence due to each concentration of peptide (protein), and the 50% effective concentration was determined.

human GPR103 = target: T1, human GPR103 (Homo sapiens, UniProt Q96P65); assay: Intracellular calcium ion concentration increasing activity (FLIPR) in human GPR103 gene-expressing CHO cells; settings: Fluo4, read-out: 50% effective concentration, intracellular calcium ion concentration increasing activity
T1 construct: expressed in transfected cells; host or cells: CHO cells, Geneticin-selected, single clone by limiting dilution
T1 sequence (Q96P65 1-431): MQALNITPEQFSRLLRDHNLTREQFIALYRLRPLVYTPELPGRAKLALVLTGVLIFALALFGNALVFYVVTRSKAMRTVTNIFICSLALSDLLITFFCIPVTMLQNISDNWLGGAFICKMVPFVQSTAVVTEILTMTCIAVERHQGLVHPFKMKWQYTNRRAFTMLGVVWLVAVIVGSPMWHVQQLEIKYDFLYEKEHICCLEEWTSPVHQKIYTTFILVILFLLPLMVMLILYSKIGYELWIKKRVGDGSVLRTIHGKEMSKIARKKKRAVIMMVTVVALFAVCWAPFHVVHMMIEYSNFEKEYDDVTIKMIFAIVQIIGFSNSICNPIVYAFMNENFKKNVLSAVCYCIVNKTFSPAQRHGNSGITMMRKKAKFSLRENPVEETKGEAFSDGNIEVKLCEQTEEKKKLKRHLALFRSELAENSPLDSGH
Method: as §1, §2, §3

monkey GPR103 = assay: Intracellular calcium ion concentration increasing activity (FLIPR) in monkey GPR103 gene-expressing CHO cells; settings: Fluo4, read-out: 50% effective concentration, intracellular calcium ion concentration increasing activity
Method: as §1, §2, §3

Q: What does the source list for “[pGlu]DEGSEADDFLPAGGVKASGPLGNLAEELNGYSRKKGGFSFRF-NH2 [monkey QRFP43]”?
A: change in intracellular calcium ion concentration [1]: no change; EC50 (human GPR103): 58 nM; EC50 (monkey GPR103): 69 nM

Q: With “H-ASGPLGNLAEELNGYSRKKGGFSFRF-NH2 [monkey QRFP26]” as the substance, how does the “change in intracellular calcium ion concentration” value [1] read?
A: no change

Q: What about the EC50 (human GPR103) of the same substance?
A: 1.7 nM

Q: And the EC50 (monkey GPR103)?
A: 9.2 nM
